Results from patent US12577341B2, “Copolymer derived from substituted benzopinacol and use of the same as polymerization initiator” (BASF COATINGS GMBH, priority 2020, dated 2026).

Tests used:
[1] = Dissolution of the initiator in the monomer solution (appearance of the resulted mixture); assay type: physicochemical
Procedure: A monomer solution was prepared by mixing 90 g of trimethylolpropane triacrylate (TMPTA) and 2 g of butyl glycol under stirring. 4 g of the copolymeric initiator system was added into the monomer solution and stirred under room temperature for 1 hour.
A monomer solution was prepared by mixing 90 g of TMPTA, 2 g of butyl glycol, 0.24 g of chloroform and 1.76 g solvent naphtha 160/180 under stirring. 1 g of benzopinacol fine powder was added into the monomer solution and stirred under room temperature for 1 hour.
A monomer solution was prepared by mixing 90 g of TMPTA and 10 g of butyl glycol under stirring. 1 g of fine benzopinacol fine powder was added into the monomer solution and stirred under room temperature for 1 hour.
A monomer solution was prepared by mixing 90 g of TMPTA and 10 g of butyl glycol by stirring. 1 g of the compound of formula (I) was added into the monomer solution and stirred under room temperature for 1 hour.

[2] = cited from earlier work
[3] = 1 g in 90 g TMPTA and 10 g butyl glycol, stirred at room temperature for 1 hour

SMILES	Appearance of resulted mixture ([1]; 1 g fine powder in 90 g TMPTA, 2 g butyl glycol, 0.24 g chloroform and 1.76 g solvent naphtha 160/180, stirred at room temperature for 1 hour)	Appearance of resulted mixture [1, 3]	Solubility in common organic solvents [2]
OC(c1ccccc1)(c1ccccc1)C(O)(c1ccccc1)c1ccccc1 [benzopinacol, 1,1,2,2-tetraphenyl-1,2-ethanediol]	transparent liquid with suspended fine particles	transparent liquid with suspended fine particles	very poor solubility
C=CCOC(=O)c1ccc(C(O)(c2ccccc2)C(O)(c2ccccc2)c2ccc(C(=O)OCC=C)cc2)cc1 (stereo not shown) [compound of formula (I), allyloxycarbonyl substituted benzopinacol of formula (I)]	–	transparent liquid with suspended fine particles	–
